According to US10981932B2, “Macrocyclic indole derivatives” (Bayer Aktiengesellschaft, priority 2016, dated 2021):
Counter-ions that a name gives are not always drawn. Like-named read-outs stand apart in the source and are kept apart here.

Assays:
SUDHL10 [1] = assay: Induction of caspase-3/7 activity (Caspase-Glo 3/7), SUDHL10; format: cell-based; conditions: caspase-3/7 induction, SUDHL10 cells, 3 h treatment, median
Procedure, shortened: (§1)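 DLBCL cells treated with compounds for 3 h at 37 °C, then caspase-3/7 activity read by Caspase-Glo 3/7 luminescence. Medium-only background subtracted; EC50 fitted with C0 fixed at 1 and top set to the reference compound's maximal induction.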

MCL-1 = MCL-1 (Homo sapiens, UniProt Q07820); assay: Protein-protein interaction assay MCL-1/Noxa BH3 peptide (MCL-1 assay), TR-FRET; format: binding; conditions: MBP-MCL-1 / Noxa BH3-derived peptide, median
Sequence of MCL-1 (Q07820 whole entry): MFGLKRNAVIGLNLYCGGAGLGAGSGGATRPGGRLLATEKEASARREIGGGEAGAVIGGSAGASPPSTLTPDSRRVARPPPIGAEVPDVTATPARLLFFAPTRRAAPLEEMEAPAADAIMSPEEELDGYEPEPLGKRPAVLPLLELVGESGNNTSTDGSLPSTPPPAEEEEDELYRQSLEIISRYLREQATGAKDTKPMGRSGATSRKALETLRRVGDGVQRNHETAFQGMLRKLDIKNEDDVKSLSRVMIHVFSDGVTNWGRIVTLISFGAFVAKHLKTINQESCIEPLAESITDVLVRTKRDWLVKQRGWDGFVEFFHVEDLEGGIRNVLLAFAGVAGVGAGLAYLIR
Procedure, shortened: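 TR-FRET, 665/622 nm emission ratio (excitation 330–350 nm), measured MCL-1/Noxa complex formation. 1 nM MBP-MCL-1, 50 mM Tris/HCl pH 7, 0.1% BGG, 2 mM DTT. Incubation 1 h at 22 °C, then overnight at 4 °C. IC50 by 4-parameter regression, normalized to DMSO (0%) and no-MCL-1 (100%) controls.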

SUDHL10 [2] = assay: Induction of cytotoxicity (CellTiter-Glo, 5 h), SUDHL10
SUDHL5 [3] = assay: Induction of cytotoxicity (CellTiter-Glo, 5 h), SUDHL5
SUDHL5 [4] = assay: Induction of caspase-3/7 activity (Caspase-Glo 3/7), SUDHL5; format: cell-based; conditions: caspase-3/7 induction, SUDHL5 cells, 3 h treatment, median
Procedure, shortened: as §1

A2780 = assay: Anti-proliferative effect (CellTiter-Glo, 72 h), A2780; format: cell-based; conditions: A2780 cells, median, read-out: IC50 antiproliferation assay A2780 [M] (median)
Procedure, shortened: (§2)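 Cells were treated with compounds for 72 h at 37 °C in a humidified incubator, and viability was measured by CellTiter-Glo luminescence. A parallel day 0 plate, read the same way, gave the time zero baseline.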

SUDHL10 [5] = assay: Anti-proliferative effect (CellTiter-Glo, 72 h), SUDHL10; format: cell-based; conditions: SUDHL10 cells, antiproliferation, median, read-out: Antiproli SUDHL10 [M] (median)
Procedure, shortened: as §2

SUDHL5 [6] = assay: Anti-proliferative effect (CellTiter-Glo, 72 h), SUDHL5; format: cell-based; conditions: SUDHL5 cells, antiproliferation, median, read-out: Antiproli SUDHL5 [M] (median)
Procedure, shortened: as §2

[7] = read-out: Cytotox SUDHL10 [M] (median), SUDHL10 cells, cytotoxicity induction, CellTiter-Glo, 5 h incubation, median
[8] = read-out: Cytotox SUDHL5 [M] (median), SUDHL5 cells, cytotoxicity induction, CellTiter-Glo, 5 h incubation, median
[9] = Homo sapiens, SU-DHL10, 5 h, read-out: Cytotox SUDHL10 [M] (median), SUDHL10 cells, cytotoxicity induction, CellTiter-Glo, 5 h incubation, median
[10] = Homo sapiens, SU-DHL-5, 5 h, read-out: Cytotox SUDHL5 [M] (median), SUDHL5 cells, cytotoxicity induction, CellTiter-Glo, 5 h incubation, median
[11] = Homo sapiens, SU-DHL10, 72 h, 72 h incubation
[12] = Homo sapiens, SU-DHL-5, 72 h, 72 h incubation

Row | SMILES | EC50 (SUDHL10 [1]) | IC50 (MCL-1) | EC50 (SUDHL5 [4]) | IC50 (A2780) | IC50 (SUDHL10 [5]; 72 h incubation) | IC50 (SUDHL5 [6]; 72 h incubation) | EC50 (SUDHL10 [1]; Homo sapiens, SU-DHL10, 3 h) | EC50 (SUDHL5 [4]; Homo sapiens, SU-DHL-5, 3 h) | IC50 (A2780; Homo sapiens, A2780, 72 h) | IC50 (SUDHL10 [5]; [11]) | IC50 (SUDHL5 [6]; [12]) | IC50 (SUDHL10 [2]; [7]) | IC50 (SUDHL5 [3]; [8]) | IC50 (SUDHL10 [2]; [9]) | IC50 (SUDHL5 [3]; [10]) | also measured
1 | Cc1c2c(nn1C)CCCCCCn1c(C(=O)O)c(CCCOc3cccc4ccccc34)c3cccc-2c31 (single isomer, unassigned; enantiomer 2) [Example 192, 2,3-dimethyl-7-[3-(1-naphthyloxy)propyl]-10,11,12,13,14,15-hexahydro-2H-pyrazolo[4′,3′:4,5]azacycloundecino[3,2,1-hi]indole-8-carboxylic acid-N-ethylethanamine Salt (Enantiomer 2)] | > 33 µM | 0.123 µM | > 33 µM | 1.8e-05 M | 9.22e-06 M | 2.03e-05 M |  |  |  |  |  | > 3.3e-05 M | > 3.3e-05 M |  |  | 
2 | Cn1nc2c(c1C(F)(F)F)-c1cccc3c(CCCOc4cccc5ccccc45)c(C(=O)O)n(c13)CCCCOC2 (single isomer, unassigned; enantiomer 2) [Example 195, 2-methyl-7-[3-(naphthalen-1-yloxy)propyl]-3-(trifluoromethyl)-2,10,11,12,13,15-hexahydropyrazolo[4′,3′:9,10][1,6]oxazacycloundecino[8,7,6-hi]indole-8-carboxylic Acid (Enantiomer 2)] | > 33 µM | 0.0532 µM | > 33 µM | 1.27e-05 M | 1.32e-05 M | 5.84e-06 M |  |  |  |  |  | > 3.3e-05 M | > 3.3e-05 M |  |  | 
3 | Cc1c2c(nn1C)CN(C)CCCCn1c(C(=O)O)c(CCCOc3cccc4ccccc34)c3cccc-2c31 (single isomer, unassigned; enantiomer 2) [Example 069, 2,3,14-trimethyl-7-[3-(naphthalen-1-yloxy)propyl]-10,11,12,13,14,15-hexahydro-2H-pyrazolo[3′,4′:8,9][1,6]diazacycloundecino[10,11,1-hi]indole-8-carboxylic Acid (Enantiomer 2)] | > 33 µM | 0.162 µM | > 33 µM | > 3.3e-05 M | 2.11e-05 M | > 3.3e-05 M |  |  |  |  |  | > 3.3e-05 M | > 3.3e-05 M |  |  | 
4 | Cc1nn(CCN2CCOCC2)c2c1-c1cccc3c(CCCOc4cccc5ccccc45)c(C(=O)O)n(c13)CCCCOC2 (single isomer, unassigned; enantiomer 2) [Example 097, 3-methyl-1-[2-(morpholin-4-yl)ethyl]-7-[3-(naphthalen-1-yloxy)propyl]-1,10,11,12,13,15-hexahydropyrazolo[4′,3′:9,10][1,6]oxazacycloundecino[8,7,6-hi]indole-carboxylic acid-N-ethylethanamine Salt (Enantiomer 2)] | > 33 µM | 0.0589 µM | > 33 µM | 2.84e-05 M | 1.21e-05 M | 2.25e-05 M |  |  |  |  |  | > 3.3e-05 M | 3.05e-05 M |  |  | 
5 | Cc1nn(C)c2c1-c1cccc3c(CCCOc4cccc5cc(F)ccc45)c(C(=O)O)n(c13)CCCOC2 (racemic) [Example 046, (rac)-1-{3-[(6-fluoronaphthalen-1-yl)oxy]propyl}-9,11-dimethyl-5,6,8,9-tetrahydro-4H-pyrazolo[4′,3′:8,9][1,5]oxazecino[7,6,5-hi]indole-2-carboxylic Acid] |  | 0.0108 µM |  |  |  |  | 17 µM | 5.7 µM | 2.65e-05 M | 3.94e-06 M | 6.27e-06 M |  |  | 2.33e-05 M | 6.09e-06 M | 
6 | Cc1ccc2c(C(C)CCOc3cccc4ccccc34)c(C(=O)O)n3c2c1-c1c(C)nn(C)c1COCCCC3 (single isomer, unassigned) [Example 259, 1,3,4-trimethyl-7-[4-(naphthalen-1-yloxy)butan-2-yl]-1,10,11,12,13,15-hexahydropyrazolo[4′3′:9,10][1,6]oxazacycloundecino[8,7,6-hi]indole-8-carboxylic Acid] | > 33 µM | 0.577 µM | 31.3 µM | 2.21e-05 M | 2.96e-05 M | > 3.3e-05 M |  |  |  |  |  | > 3.3e-05 M | > 3.3e-05 M |  |  | 

More lines, main results first:

Row | EC50 (SUDHL10 [1]) | IC50 (MCL-1) | EC50 (SUDHL5 [4]) | IC50 (A2780) | IC50 (SUDHL10 [5]; 72 h incubation) | IC50 (SUDHL5 [6]; 72 h incubation) | EC50 (SUDHL10 [1]; Homo sapiens, SU-DHL10, 3 h) | EC50 (SUDHL5 [4]; Homo sapiens, SU-DHL-5, 3 h) | IC50 (A2780; Homo sapiens, A2780, 72 h) | IC50 (SUDHL10 [5]; [11]) | IC50 (SUDHL5 [6]; [12]) | SMILES | IC50 (SUDHL10 [2]; [7]) | IC50 (SUDHL5 [3]; [8]) | IC50 (SUDHL10 [2]; [9]) | IC50 (SUDHL5 [3]; [10]) | also measured
7 |  | 0.0142 µM |  |  |  |  | 32.4 µM | 25.1 µM | 2.32e-05 M |  |  | Cn1nc(COCc2ccc(C(N)=O)cc2)c2c1COCCCCn1c(C(=O)O)c(CCCOc3cccc4ccccc34)c3cccc-2c31 (racemic) [Example 346, (rac)-3-{[(4-carbamoylbenzyl)oxy]methyl}-1-methyl-7-[3-(naphthalen-1-yloxy)propyl]-1,10,11,12,13,15-hexahydropyrazolo[4′,3′:9,10][1,6]oxazacycloundecino[8,7,6-hi]indole-8-carboxylic Acid] |  |  |  |  | IC50 (SUDHL10 [2]; Homo sapiens, SU-DHL10, 5 h, read-out: Cytotox SUDHL10 [M] (median), SUDHL10 cells, cytotoxicity induction, CellTiter-Glo, 5 h, median): > 3.3e-05 M; IC50 (SUDHL5 [3]; Homo sapiens, SU-DHL-5, 5 h, read-out: Cytotox SUDHL5 [M] (median), SUDHL5 cells, cytotoxicity induction, CellTiter-Glo, 5 h, median): 2.02e-05 M; IC50 (SUDHL10 [5]; Homo sapiens, SU-DHL10, 72 h, 72 h): 3.54e-06 M; IC50 (SUDHL5 [6]; Homo sapiens, SU-DHL-5, 72 h, 72 h): 9.09e-06 M
8 | > 33 µM | 0.32 µM | > 33 µM | 2.18e-05 M |  |  |  |  |  |  |  | Cn1nc(COc2ccc(NS(C)(=O)=O)cc2)c2c1COCCCCn1c(C(=O)O)c(CCCOc3cccc4ccccc34)c3cccc-2c31 (single isomer, unassigned; enantiomer 2) [Example 323, 1-methyl-3-({4-[(methylsulfonyl)amino]phenoxy}methyl)-7-[3-(naphthalen-1-yloxy)propyl]-1,10,11,12,13,15-hexahydropyrazolo[4′,3′:9,10][1,6]oxazacycloundecino[8,7,6-hi]indole-8-carboxylic acid-N-ethylethanamine Salt (Enantiomer 2)] |  |  |  |  | IC50 (SUDHL10 [2]; read-out: Cytotox SUDHL10 [M] (median), SUDHL10 cells, cytotoxicity induction, CellTiter-Glo, 5 h, median): > 3.3e-05 M; IC50 (SUDHL5 [3]; read-out: Cytotox SUDHL5 [M] (median), SUDHL5 cells, cytotoxicity induction, CellTiter-Glo, 5 h, median): > 3.3e-05 M; IC50 (SUDHL10 [5]; 72 h): 1.36e-05 M; IC50 (SUDHL5 [6]; 72 h): 1.32e-05 M
9 |  | 0.0262 µM |  |  |  |  | 16.1 µM | 17.3 µM | > 3.3e-05 M | 1.14e-05 M | 8.1e-06 M | Cn1ccnc1COCc1nn(C)c2c1-c1cccc3c(CCCOc4cccc5ccccc45)c(C(=O)O)n(c13)CCCCOC2 (racemic) [Example 231, (rac)-1-methyl-3-{[(1-methyl-1H-imidazol-2-yl)methoxyl]methyl}-7-[3-(naphthalen-1-yloxy)propyl]-1,10,11,12,13,15-hexahydropyrazolo[4′,3′:9,10][1,6]oxazacycloundecino[8,7,6-hi]indole-8-carboxylic Acid] |  |  | 1.6e-05 M | 1.33e-05 M | 
10 |  | 0.014 µM |  |  |  |  | > 33 µM | 12.8 µM | > 3.3e-05 M | 1.36e-05 M | 9.95e-06 M | Cn1nc(CC(F)(F)F)c2c1COCCCCn1c(C(=O)O)c(CCCOc3cccc4ccccc34)c3cccc-2c31 (racemic) [Example 219, (rac)-1-methyl-7-[3-(naphthalen-1-yloxy)propyl]-3-(2,2,2-trifluoroethyl)-1,10,11,12,13,15-hexahydropyrazolo[4′,3′:9,10][1,6]oxazacycloundecino[8,7,6-hi]indole-8-carboxylic Acid] |  |  | 2.47e-05 M | 9.71e-06 M | 
11 |  | 0.0127 µM |  | 2.6e-05 M |  |  | > 33 µM | 18.7 µM | > 3.3e-05 M | 4.93e-06 M | 1.05e-05 M | Cc1nn(C)c2c1-c1cccc3c(CCCOc4cccc5ccccc45)c(C(=O)O)n(c13)CCCOC2 (racemic) [Example 043, (rac)-9,11-dimethyl-1-[3-(naphthalen-1-yloxy)propyl]-5,6,8,9-tetrahydro-4H-pyrazolo[4′,3′:8,9][(1,5]oxazecino[7,6,5-hi]indole-2-carboxylic Acid] |  |  | > 3.3e-05 M | 1.79e-05 M | 
